Reference: patent US11352322B2, “Cyclopropyl-amide compounds as dual LSD1/HDAC inhibitors” (Jubilant Epicore LLC, priority 2016, dated 2022)
Where a name gives a salt, the structure may show the parent alone. Read-outs that look alike come from different tables or passages of the source.

Assays:
[1] = Metabolic stability in liver microsomes, MLM; settings: 1 μM, NADPH
Experimental: (§1) The microsomal suspension was prepared by adding liver microsomes to 100 mM potassium phosphate buffer (pH7.4) to give a final protein concentration of 0.5 mg/mL. The stock solution of NCE (10 mM in DMSO) was added to the microsomes to provide a final concentration of 1 μM. […] Samples were vortexed and centrifuged at 5,000 rpm for 10 min to remove proteins. Supernatant were analyzed on LC-MS/MS.

[2] = target: HDAC6 human recombinant enzyme (Homo sapiens (Human), UniProt Q9UBN7); assay: Histone Deacetylase Assay (BPS Biosciences), HDAC6; type: biochemical
Chain of HDAC6 human recombinant enzyme (Q9UBN7 whole entry): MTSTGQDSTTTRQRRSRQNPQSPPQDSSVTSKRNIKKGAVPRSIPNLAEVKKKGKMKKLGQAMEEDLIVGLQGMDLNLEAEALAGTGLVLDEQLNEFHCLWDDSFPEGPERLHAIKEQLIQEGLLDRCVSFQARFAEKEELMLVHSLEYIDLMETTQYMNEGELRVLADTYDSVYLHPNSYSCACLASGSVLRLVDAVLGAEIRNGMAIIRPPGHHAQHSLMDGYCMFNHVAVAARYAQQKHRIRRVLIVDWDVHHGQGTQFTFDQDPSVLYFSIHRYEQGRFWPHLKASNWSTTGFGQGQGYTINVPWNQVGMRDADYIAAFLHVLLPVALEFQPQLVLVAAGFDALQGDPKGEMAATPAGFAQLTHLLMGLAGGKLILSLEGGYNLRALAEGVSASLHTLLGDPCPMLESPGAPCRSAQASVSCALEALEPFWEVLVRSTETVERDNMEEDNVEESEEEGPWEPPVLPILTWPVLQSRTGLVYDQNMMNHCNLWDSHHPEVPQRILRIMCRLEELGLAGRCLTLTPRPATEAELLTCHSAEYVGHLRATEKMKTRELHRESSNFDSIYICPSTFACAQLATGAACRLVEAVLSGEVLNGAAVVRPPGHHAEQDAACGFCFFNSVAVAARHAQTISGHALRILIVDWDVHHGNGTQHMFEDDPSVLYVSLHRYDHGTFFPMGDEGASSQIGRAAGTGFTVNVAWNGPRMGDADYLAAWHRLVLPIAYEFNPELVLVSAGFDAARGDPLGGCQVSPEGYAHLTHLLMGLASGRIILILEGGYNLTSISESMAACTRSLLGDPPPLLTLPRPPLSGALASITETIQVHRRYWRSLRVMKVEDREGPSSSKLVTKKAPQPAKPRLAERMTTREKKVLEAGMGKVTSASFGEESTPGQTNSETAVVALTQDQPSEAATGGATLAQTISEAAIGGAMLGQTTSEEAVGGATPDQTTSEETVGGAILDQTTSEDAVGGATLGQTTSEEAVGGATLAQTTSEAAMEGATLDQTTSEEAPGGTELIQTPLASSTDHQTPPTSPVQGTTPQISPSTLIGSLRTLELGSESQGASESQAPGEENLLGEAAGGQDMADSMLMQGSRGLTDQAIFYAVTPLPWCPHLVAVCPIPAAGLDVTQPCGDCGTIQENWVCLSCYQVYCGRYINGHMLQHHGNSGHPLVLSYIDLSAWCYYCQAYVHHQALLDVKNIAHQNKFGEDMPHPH
Excerpt: Histone Deacetylase Assay (BPS Biosciences)
Histone deacetylase assay was done as per manufacturer's instructions.

[3] = tested on: MM1S; assay: Anticancer activity: Alamar Blue assay, MM1S; type: cell-based; settings: Homo sapiens, MM1.S, read-out: MM1S EC50
Experimental: Cells were seeded at 5000 cells/per well in 96-well tissue culture plate and incubated at 37° C./5% CO2. After 16-24 hours, fresh media was added to the wells. Compounds were then (1% DMSO conc.) added to the cells at 10 concentrations ranging from 10-0.0005 uM prepared in 3-fold serial dilutions. Cells were incubated for 68-72 h at 37° C./5% CO2. Alamar Blue™ reagent was added and incubated for 1-3 hours at 37° C./5% CO2. Plates were read on fluorescence reader at 540 nm excitation, 590 nm emission wave lengths.

[4] = Metabolic stability in liver microsomes, HLM; settings: 1 μM, NADPH
Experimental: as §1

[5] = target: LSD1 (Homo sapiens (Human), UniProt O60341); assay: TR-FRET Assay for LSD1
Experimental: TR-FRET Assay for LSD1 (Perkin Elmer)
Tranylcypromine (TCP), LSD1 inhibitor was procured from Selleckchem. […] Stop Solution containing 300 μM tranylcypromine in 1× LANCE Detection Buffer was added to the wells and incubated for 5 min at RT. Then, Detection mix containing 2 nM Eu-Ab and 50 nM ULight-Streptavidin in 1× LANCE Detection Buffer was prepared and added to the reaction mix. This mixture was incubated for 1 hour at room temperature.

Row | Compound | Metabolic stability MLM % remaining in 30 min [1] | IC50 [2] [nM] | EC50 ([3]; MM1S cells) [nM] | Metabolic stability HLM % remaining in 30 min [4] | IC50 ([5]; read-out: LSD1 IC50) [nM] | IC50 [5] [nM] | EC50 [3] [nM]
1 | Cn1cc(-c2ccc(C3CC3NCC3CCN(CCCc4ccc(C(=O)NO)cc4)CC3)cc2)cn1 (stereo not drawn) [Example 62, N-hydroxy-4-(3-(4-(((2-(4-(1-methyl-1H-pyrazol-4-yl)phenyl)cyclopropyl)amino)methyl)piperidin-1-yl)propyl) benzamide TFA Salt] | 66% | 66 | 7 | 77% | 43 |  | 
2 | Cc1noc(C)c1-c1ccc(C2CC2NCC2CCN(CCCc3ccc(C(=O)NO)cc3)CC2)cc1.O=C(O)C(F)(F)F (stereo not drawn) [Example 64, 4-(3-(4-(((2-(4-(3,5-dimethylisoxazol-4-yl)phenyl)cyclopropyl)amino)methyl)piperidin-1-yl)propyl)-N-hydroxybenzamide TFA Salt] | 77% | 58 | 11 | 82% |  | 59 | 
3 | O=C(NO)c1ccc(CN2CCc3ccc(CNC4CC4c4ccc(F)cc4)cc3C2)cc1 (stereo not drawn) [Example 79, 4-((7-(((2-(4-fluorophenyl)cyclopropyl)amino)methyl)-3,4-dihydroisoquinolin-2(1H)-yl)methyl)-N-hydroxybenzamide TFA Salt] | 6% | 24 |  | 18% | 79 |  | 39
4 | O=C(NO)c1ccc(CN2CCn3cc(CNC4CC4c4ccc(F)cc4)nc3C2)cc1 (stereo not drawn) [Example 80, 4-((2-(((2-(4-fluorophenyl)cyclopropyl)amino)methyl)-5,6-dihydroimidazo[1,2-a]pyrazin-7(8H)-yl)methyl)-N-hydroxybenzamide TFA Salt] | 87% | 68 |  | 82% | 1500 |  | 331
5 | CN1C(=O)C(C)(C)c2cc(C3CC3NCC3CCN(CCCc4ccc(C(=O)NO)cc4)CC3)ccc21 (stereo not drawn) [Example 81, N-hydroxy-4-(3-(4(((2-(1,3,3,-trimethyl-2-oxoindoline-5-yl)cyclopropyl)amino)methyl)piperidine-1-yl)propyl)benzamide TFA Salt] | >95/>95% | 125 | 22 | >95/>95% | 394 |  | 
6 | O=C(NO)c1ccc(CCC(=O)N2CCC(CNC3CC3c3ccccc3)CC2)cc1 (stereo not drawn) [Example 82, N-hydroxy-4-(3-oxo-3-(4-(((2-phenylcyclopropyl)amino)methyl)piperidin-1-yl)propyl)benzamide TFA Salt] | 72% | 35 |  | 77% | 94 |  | 619
7 | O=C(NO)c1ccc(C(=O)NCCN2CCC(CNC3CC3c3ccc(F)c(F)c3)CC2)cc1 (stereo not drawn) [Example 90, N1-(2-(4-(((2-(3,4-difluorophenyl)cyclopropyl)amino)methyl)piperidin-1-yl)ethyl)-N4-hydroxyterephthalamide TFA Salt] | 93% | 170 |  | 80% | 21 |  | 339
8 | O=C(NO)c1ccc(OCCNC2CC2c2ccccc2)cc1 (stereo not drawn) [Example 95, N-hydroxy-4-(2-((2-phenylcyclopropyl)amino)ethoxy)benzamide TFA Salt] | 55% | 350 |  | 75% | 33 |  | 144
9 | O=C(NO)c1ccc(OCCN2CCC(CNC3CC3c3ccccc3)CC2)cc1 (stereo not drawn) [Example 99, N-hydroxy-4-(2-(4-(((2-phenylcyclopropyl)amino)methyl)piperidin-1-yl)ethoxy)benzamide TFA Salt] | 76% | 51 |  | 63% | 4 |  | 27
10 | O=C(NO)c1cnc(NCCN2CCC(CNC3CC3c3ccc(F)cc3)CC2)nc1 (stereo not drawn) [Example 102, 2-((2-(4-(((2-(4-fluorophenyl)cyclopropyl)amino)methyl)piperidin-1-yl)ethyl)amino)-N-hydroxypyrimidine-5-carboxamide TFA Salt] | >99/>99% | 75 |  | >99/>99% | 22 |  | 5
11 | O=C(NO)c1cc2c(s1)CCN(C(=O)CCCN1CCC(CNC3CC3c3ccc(F)cc3)CC1)C2 (stereo not drawn) [Example 106, 5-(4-(4-(((2-(4-fluorophenyl)cyclopropyl)amino)methyl)piperidin-1-yl)butanoyl)-N-hydroxy-4,5,6,7-tetrahydrothieno[3,2-c]pyridine-2-carboxamide TFA Salt] | 92% | 35 |  | 74% | 26 |  | 14
12 | O=C(NO)c1csc(CCCN2CCC(CNC3CC3c3ccccc3)CC2)n1.O=C(O)C(F)(F)F (stereo not drawn) [Example 110, N-hydroxy-2-(3-(4-(((2-phenylcyclopropyl)amino)methyl)piperidin-1-yl)propyl)thiazole-4-carboxamide TFA Salt] | 95% | > 10000 | > 10000 | 88% |  | 26 | 
13 | O=C(NO)c1coc(CCCN2CCC(CNC3CC3c3ccccc3)CC2)n1.O=C(O)C(F)(F)F (stereo not drawn) [Example 113, N-hydroxy-2-(3-(4-(((2-phenylcyclopropyl)amino)methyl)piperidin-1-yl)propyl)oxazole-4-carboxamide TFA Salt] | 76% | > 10000 | > 10000 | 78% |  | 26 | 
14 | O=C(NO)c1ccc(/C=C/C(=O)N2CCC(CN[C@H]3C[C@@H]3c3ccc(F)cc3)CC2)cc1 [Example 115, 4-((E)-3-(4-((((1S,2R)-2-(4-fluorophenyl)cyclopropyl)amino)methyl)piperidin-1-yl)-3-oxoprop-1-en-1-yl)-N-hydroxybenzamide TFA Salt] | 45% | 53 | 10 | 75% | 65 |  | 
15 | O=C(NO)c1ccc(/C=C/C(=O)N2CCC(CNC3CC3c3ccc(-c4cncnc4)cc3)CC2)cc1 (stereo not drawn) [Example 117, (E)-N-hydroxy-4-(3-oxo-3-(4-(((2-(4-(pyrimidin-5-yl)phenyl)cyclopropyl)amino)methyl)piperidin-1-yl)prop-1-en-1-yl)benzamide TFA Salt] | 82% | 74 |  | 80% | 46 |  | 460
16 | O=C(NO)c1ccc(/C=C/C(=O)N2CC(CNC3CC3c3ccc(F)cc3)C2)cc1 (stereo not drawn) [Example 118, (E)-4-(3-(3-(((2-(4-fluorophenyl)cyclopropyl)amino)methyl)azetidin-1-yl)-3-oxoprop-1-en-1-yl)-N-hydroxybenzamide TFA Salt] | 76% | 58 |  | 77% | 37 |  | 21
17 | Cn1cc(-c2ccc(C3CC3NCC3CN(C(=O)/C=C/c4ccc(C(=O)NO)cc4)C3)cc2)cn1 (stereo not drawn) [Example 119, (E)-N-hydroxy-4-(3-(3-(((2-(4-(1-methyl-1H-pyrazol-4-yl)phenyl)cyclopropyl)amino)methyl)azetidin-1-yl)-3-oxoprop-1-en-1-yl)benzamide TFA Salt] | 49% | 49 |  | 72% | 19 |  | 772
18 | Nc1ccccc1NC(=O)c1ccc(CCCN2CC3(CC(NC4CC4c4ccccc4)C3)C2)cc1 (stereo not drawn) [Example 127, N-(2-aminophenyl)-4-(3-(6-((2-phenylcyclopropyl)amino)-2-azaspiro[3.3]heptan-2-yl)propyl)benzamide TFA Salt] | 19% | > 10000 | 126 | 17% | 764 |  | 
19 | Nc1ccc(F)cc1NC(=O)c1ccc(CCCN2CCC(CNC3CC3c3ccc(F)cc3)CC2)cc1 (stereo not drawn) [Example 132, N-(2-amino-5-fluorophenyl)-4-(3-(4-(((2-(4-fluorophenyl)cyclopropyl)amino)methyl)piperidin-1-yl)propyl)benzamide TFA Salt] | 80% | > 10000 |  | 81% | 5 |  | 21
20 | Nc1ccccc1NC(=O)c1ccc(CCC(=O)N2CCC(CNC3CC3c3ccccc3)CC2)cc1 (stereo not drawn) [Example 134, N-(2-aminophenyl)-4-(3-oxo-3-(4-(((2-phenylcyclopropyl)amino)methyl)piperidin-1-yl)propyl)benzamide TFA Salt] | 10/10% | > 10000 |  | 10/10% | 42 |  | 174
21 | Nc1ccccc1NC(=O)c1ccc(CCCn2cnc(CNC3CC3c3ccccc3)c2)cc1 (stereo not drawn) [Example 136, N-(2-aminophenyl)-4-(3-(4-(((2-phenylcyclopropyl)amino)methyl)-1H-imidazol-1-yl)propyl)benzamide TFA Salt] | 3% | > 10000 |  | 4% | 570 |  | 174
